Source: US11691980B2, “Liphagal analog and multi-targeted kinase inhibitor containing liphagal or analog thereof” (TOHOKU UNIVERSITY, priority 2017, dated 2023)

Legend:
Assay in all cases: mobility shift assay
Format in all cases: biochemical
TYK2 = target: T1, TYK2 (Homo sapiens, UniProt P29597)
T1 construct: purchased Carna Biosciences

ABL(E265K) = settings: 10 μM
PLK3 = target: T2, PLK3 (Homo sapiens, UniProt Q9H4B4)
T2 construct: purchased Carna Biosciences

PKCβ2 = target: T3, PKCβ2 (Homo sapiens, UniProt P05771)
T3 construct: purchased Carna Biosciences

HCK = target: T4, HCK (Homo sapiens, UniProt P08631)
T4 construct: purchased Carna Biosciences

MSK2 = target: T5, MSK2 (Homo sapiens, UniProt O75676)
T5 construct: purchased Carna Biosciences

Erk5 = target: T6, Erk5 (Homo sapiens, UniProt Q13164)
T6 construct: purchased Carna Biosciences

KIT(D816E) = target: T7, KIT(D816E) (Homo sapiens, UniProt P10721, D816E)
T7 construct: purchased Carna Biosciences

IRR = target: T8, IRR (Homo sapiens, UniProt P14616)
T8 construct: purchased Carna Biosciences

FGFR4 = target: T9, FGFR4 (Homo sapiens, UniProt P22455)
T9 construct: purchased Carna Biosciences

OK1δ = target: T10, OK1δ (Homo sapiens, UniProt P48730)
T10 construct: purchased Carna Biosciences

Erk1 = target: T11, Erk1 (Homo sapiens, UniProt P27361)
T11 construct: purchased Carna Biosciences

RSK2 = target: T12, RSK2 (Homo sapiens, UniProt P51812)
T12 construct: purchased Carna Biosciences

TNK1 = target: T13, TNK1 (Homo sapiens, UniProt Q13470)
T13 construct: purchased Carna Biosciences

PKCγ = target: T14, PKCγ (Homo sapiens, UniProt P05129)
T14 construct: purchased Carna Biosciences

PKACβ = target: T15, PKACβ (Homo sapiens, UniProt P22694)
T15 construct: purchased Carna Biosciences

FGFR2 = target: T16, FGFR2 (Homo sapiens, UniProt P21802)
T16 construct: purchased Carna Biosciences

TSSK1 = target: T17, TSSK1 (Homo sapiens, UniProt Q9BXA7)
T17 construct: purchased Carna Biosciences

EPHA3 = target: T18, EPHA3 (Homo sapiens, UniProt P29320)
T18 construct: purchased Carna Biosciences

TRK1 = settings: 10 μM
WNK2 = target: T19, WNK2 (Homo sapiens, UniProt Q9Y3S1)
T19 construct: purchased Carna Biosciences

CLK1 = target: T20, CLK1 (Homo sapiens, UniProt P49759)
T20 construct: purchased Carna Biosciences

CaMK2δ = target: T21, CaMK2δ (Homo sapiens, UniProt Q13557)
T21 construct: purchased Carna Biosciences

CaMK2γ = target: T22, CaMK2γ (Homo sapiens, UniProt Q13555)
T22 construct: purchased Carna Biosciences

TXK = target: T23, TXK (Homo sapiens, UniProt P42681)
T23 construct: purchased Carna Biosciences

AurC = target: T24, AurC (Homo sapiens, UniProt Q9UQB9)
T24 construct: purchased Carna Biosciences

PKCα = target: T25, PKCα (Homo sapiens, UniProt P17252)
T25 construct: purchased Carna Biosciences

p38α = target: T26, p38α (Homo sapiens, UniProt Q16539)
T26 construct: purchased Carna Biosciences

ALK(L1152lnsT) = settings: 10 μM
ARG = target: T27, ARG (Homo sapiens, UniProt P42684)
T27 construct: purchased Carna Biosciences

CDK2/CycA2 = target: T28, CDK2/CycA2 (Homo sapiens, UniProt P24941)
T28 construct: purchased Carna Biosciences

EGFR(T790M) = target: T29, EGFR(T790M) (Homo sapiens, UniProt P00533, T790M)
T29 construct: purchased Carna Biosciences

p70S6K = target: T30, p70S6K (Homo sapiens, UniProt P23443)
T30 construct: purchased Carna Biosciences

EGFR(α746-750) = target: T31, EGFR(α746-750) (Homo sapiens, UniProt P00533, DEL746-750)
T31 construct: purchased Carna Biosciences

CDK4/CycD3 = CDK4/CycD3 (Homo sapiens, UniProt P11802)
JNK3 = target: T32, JNK3 (Homo sapiens, UniProt P53779)
T32 construct: purchased Carna Biosciences

NDR1 = target: T33, NDR1 (Homo sapiens, UniProt Q15208)
T33 construct: purchased Carna Biosciences

COK6/CycD3 = target: T34, COK6/CycD3 (Homo sapiens, UniProt Q00534)
T34 construct: purchased Carna Biosciences

PKACα = target: T35, PKACα (Homo sapiens, UniProt P17612)
T35 construct: purchased Carna Biosciences

IGF1R = target: T36, IGF1R (Homo sapiens, UniProt P08069)
T36 construct: purchased Carna Biosciences

PYK2 = target: T37, PYK2 (Homo sapiens, UniProt Q14289)
T37 construct: purchased Carna Biosciences

MSK1 = target: T38, MSK1 (Homo sapiens, UniProt O75582)
T38 construct: purchased Carna Biosciences

CDK4/CycD3, sequence (P11802 whole entry): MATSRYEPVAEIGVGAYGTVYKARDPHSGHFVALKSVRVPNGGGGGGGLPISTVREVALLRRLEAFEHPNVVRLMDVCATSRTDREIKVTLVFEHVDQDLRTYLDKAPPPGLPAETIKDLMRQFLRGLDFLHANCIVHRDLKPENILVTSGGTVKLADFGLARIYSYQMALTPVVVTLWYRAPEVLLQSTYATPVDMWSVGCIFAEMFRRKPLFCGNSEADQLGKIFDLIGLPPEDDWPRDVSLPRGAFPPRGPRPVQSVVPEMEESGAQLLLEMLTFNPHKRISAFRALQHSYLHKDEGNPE
CDK4/CycD3, sequence (P30281 whole entry partner): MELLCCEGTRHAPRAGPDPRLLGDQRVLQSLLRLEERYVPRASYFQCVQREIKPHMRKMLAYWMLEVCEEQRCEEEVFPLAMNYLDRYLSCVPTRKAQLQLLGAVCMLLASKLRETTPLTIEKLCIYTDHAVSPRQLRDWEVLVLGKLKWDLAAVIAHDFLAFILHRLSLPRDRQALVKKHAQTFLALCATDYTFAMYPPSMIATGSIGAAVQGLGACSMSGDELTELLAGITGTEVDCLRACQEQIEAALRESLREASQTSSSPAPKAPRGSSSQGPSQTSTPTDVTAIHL
T34 sequence (Q00534 whole entry): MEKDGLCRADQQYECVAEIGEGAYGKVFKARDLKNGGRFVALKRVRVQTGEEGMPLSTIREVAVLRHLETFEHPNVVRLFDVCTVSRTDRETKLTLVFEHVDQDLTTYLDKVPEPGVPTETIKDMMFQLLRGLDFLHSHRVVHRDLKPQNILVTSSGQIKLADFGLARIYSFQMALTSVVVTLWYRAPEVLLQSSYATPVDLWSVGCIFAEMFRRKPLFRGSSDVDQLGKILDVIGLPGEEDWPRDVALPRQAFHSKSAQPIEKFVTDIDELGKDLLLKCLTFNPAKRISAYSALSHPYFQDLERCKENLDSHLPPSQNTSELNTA
T34 sequence (P30281 whole entry partner): as the sequence (P30281 whole entry partner) above
T33 sequence (Q15208 whole entry): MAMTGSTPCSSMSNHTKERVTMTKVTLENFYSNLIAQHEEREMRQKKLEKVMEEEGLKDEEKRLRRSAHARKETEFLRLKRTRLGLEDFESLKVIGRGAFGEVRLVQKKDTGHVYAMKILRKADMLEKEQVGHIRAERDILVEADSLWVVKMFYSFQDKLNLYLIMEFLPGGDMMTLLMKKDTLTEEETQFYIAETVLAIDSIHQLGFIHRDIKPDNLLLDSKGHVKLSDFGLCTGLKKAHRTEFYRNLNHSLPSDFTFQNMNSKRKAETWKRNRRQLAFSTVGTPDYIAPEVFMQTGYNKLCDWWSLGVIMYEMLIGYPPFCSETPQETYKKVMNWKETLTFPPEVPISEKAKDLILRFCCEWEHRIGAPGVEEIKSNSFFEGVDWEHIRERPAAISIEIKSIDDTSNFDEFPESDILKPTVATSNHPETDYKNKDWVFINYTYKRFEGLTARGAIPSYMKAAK
T31 sequence (P00533 with tags, fused parts or gaps DEL746-750 limits assumed): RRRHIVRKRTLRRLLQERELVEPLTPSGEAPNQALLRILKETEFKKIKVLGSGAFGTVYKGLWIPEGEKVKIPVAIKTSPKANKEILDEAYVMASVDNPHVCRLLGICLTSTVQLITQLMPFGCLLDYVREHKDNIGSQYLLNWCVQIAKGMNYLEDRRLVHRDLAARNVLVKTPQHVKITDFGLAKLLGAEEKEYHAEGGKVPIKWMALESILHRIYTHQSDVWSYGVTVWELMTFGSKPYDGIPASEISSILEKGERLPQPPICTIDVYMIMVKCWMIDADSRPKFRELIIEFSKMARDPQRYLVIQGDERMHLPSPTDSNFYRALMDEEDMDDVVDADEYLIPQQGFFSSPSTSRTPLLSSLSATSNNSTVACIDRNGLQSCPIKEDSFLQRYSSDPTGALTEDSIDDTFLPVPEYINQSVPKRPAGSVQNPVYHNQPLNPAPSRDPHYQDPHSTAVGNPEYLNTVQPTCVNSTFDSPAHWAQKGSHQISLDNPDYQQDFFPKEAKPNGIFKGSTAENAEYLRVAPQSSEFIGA
T7 sequence (P10721 26-976 D816E): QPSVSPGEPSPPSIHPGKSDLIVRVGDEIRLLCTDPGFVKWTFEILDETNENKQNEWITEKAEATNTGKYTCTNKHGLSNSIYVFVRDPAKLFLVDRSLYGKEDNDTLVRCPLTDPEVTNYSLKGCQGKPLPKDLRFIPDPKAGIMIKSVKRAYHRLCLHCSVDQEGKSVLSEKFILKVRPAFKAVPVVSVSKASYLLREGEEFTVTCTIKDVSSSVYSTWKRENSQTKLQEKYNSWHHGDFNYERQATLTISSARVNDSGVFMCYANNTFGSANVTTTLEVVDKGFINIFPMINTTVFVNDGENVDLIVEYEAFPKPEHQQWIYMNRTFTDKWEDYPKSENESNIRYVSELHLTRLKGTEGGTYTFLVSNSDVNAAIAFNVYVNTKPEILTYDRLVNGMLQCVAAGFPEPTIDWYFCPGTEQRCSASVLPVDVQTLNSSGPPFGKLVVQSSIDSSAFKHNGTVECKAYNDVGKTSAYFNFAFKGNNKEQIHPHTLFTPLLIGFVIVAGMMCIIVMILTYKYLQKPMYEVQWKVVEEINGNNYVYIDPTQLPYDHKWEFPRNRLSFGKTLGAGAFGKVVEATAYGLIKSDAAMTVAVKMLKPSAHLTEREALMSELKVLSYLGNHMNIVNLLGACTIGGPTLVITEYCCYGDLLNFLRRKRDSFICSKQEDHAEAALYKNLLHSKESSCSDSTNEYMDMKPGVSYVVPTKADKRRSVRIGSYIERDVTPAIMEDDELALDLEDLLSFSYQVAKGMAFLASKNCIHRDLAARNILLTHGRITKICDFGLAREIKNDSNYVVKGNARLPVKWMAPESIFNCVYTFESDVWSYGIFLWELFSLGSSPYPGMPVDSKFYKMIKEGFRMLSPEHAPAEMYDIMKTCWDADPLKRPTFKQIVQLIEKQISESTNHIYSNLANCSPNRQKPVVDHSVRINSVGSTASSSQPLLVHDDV
T1 sequence (P29597 whole entry): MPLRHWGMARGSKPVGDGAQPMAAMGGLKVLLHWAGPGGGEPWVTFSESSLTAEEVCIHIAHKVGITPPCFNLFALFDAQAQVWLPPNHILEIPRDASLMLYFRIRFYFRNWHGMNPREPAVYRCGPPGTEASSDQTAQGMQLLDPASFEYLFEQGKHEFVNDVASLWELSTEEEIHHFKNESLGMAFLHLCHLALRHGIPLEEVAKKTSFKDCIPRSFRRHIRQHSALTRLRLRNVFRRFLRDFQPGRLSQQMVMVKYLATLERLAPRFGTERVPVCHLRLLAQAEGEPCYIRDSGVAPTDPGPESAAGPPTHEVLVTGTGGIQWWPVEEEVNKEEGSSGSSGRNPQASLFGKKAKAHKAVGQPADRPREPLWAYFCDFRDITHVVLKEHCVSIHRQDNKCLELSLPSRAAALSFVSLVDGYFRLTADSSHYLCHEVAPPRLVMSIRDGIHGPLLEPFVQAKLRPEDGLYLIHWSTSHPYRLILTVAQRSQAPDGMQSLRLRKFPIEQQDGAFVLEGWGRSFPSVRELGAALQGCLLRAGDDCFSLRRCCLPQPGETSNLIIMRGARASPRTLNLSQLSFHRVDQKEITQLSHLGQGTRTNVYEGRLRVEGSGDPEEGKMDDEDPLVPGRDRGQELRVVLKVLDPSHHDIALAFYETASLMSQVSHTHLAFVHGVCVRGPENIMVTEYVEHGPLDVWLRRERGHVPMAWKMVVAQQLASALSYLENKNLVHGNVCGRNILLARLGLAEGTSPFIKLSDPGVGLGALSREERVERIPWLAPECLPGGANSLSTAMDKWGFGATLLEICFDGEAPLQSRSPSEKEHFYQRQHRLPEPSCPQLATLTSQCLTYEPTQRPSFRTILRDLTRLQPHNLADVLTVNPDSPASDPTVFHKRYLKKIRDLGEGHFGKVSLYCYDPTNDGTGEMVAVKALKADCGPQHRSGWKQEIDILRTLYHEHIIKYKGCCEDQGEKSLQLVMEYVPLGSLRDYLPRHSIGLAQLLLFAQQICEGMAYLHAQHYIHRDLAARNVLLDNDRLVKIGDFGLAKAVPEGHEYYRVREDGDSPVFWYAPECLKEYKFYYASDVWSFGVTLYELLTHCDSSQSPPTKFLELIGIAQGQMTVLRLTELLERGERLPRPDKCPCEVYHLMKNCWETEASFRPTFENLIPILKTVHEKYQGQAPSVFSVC

C[C@@H]1CC[C@H]2C(C)(C)CCC[C@]2(C)c2c1oc1c(C=O)c(O)c(O)cc21 [LG-1, liphagal]
inhibition at 10 µM (TYK2): -6.5%
% Inhibition (ABL(E265K)): −3.3%
inhibition at 10 µM (PLK3): 31.1%
inhibition at 10 µM (PKCβ2): -13.2%
inhibition at 10 µM (HCK): 4.8%
inhibition at 10 µM (MSK2): -11.7%
inhibition at 10 µM (Erk5): 0.6%
inhibition at 10 µM (KIT(D816E)): 19.4%
inhibition at 10 µM (IRR): 23.1%
inhibition at 10 µM (FGFR4): 7.5%
inhibition at 10 µM (OK1δ): 4.1%
inhibition at 10 µM (Erk1): -4.4%
inhibition at 10 µM (RSK2): 14.5%
inhibition at 10 µM (TNK1): 5.1%
inhibition at 10 µM (PKCγ): -1.9%
inhibition at 10 µM (PKACβ): 13.9%
inhibition at 10 µM (FGFR2): -8.4%
inhibition at 10 µM (TSSK1): 4.1%
inhibition at 10 µM (EPHA3): -2.8%
% Inhibition (TRK1): −0.5%
inhibition at 10 µM (WNK2): 20.7%
inhibition at 10 µM (CLK1): 30.1%
inhibition at 10 µM (CaMK2δ): 7.7%
inhibition at 10 µM (CaMK2γ): 3.8%
inhibition at 10 µM (TXK): 23.1%
inhibition at 10 µM (AurC): 36.3%
inhibition at 10 µM (PKCα): -8%
inhibition at 10 µM (p38α): 0.1%
% Inhibition (ALK(L1152lnsT)): −0.2%
inhibition at 10 µM (ARG): 1.4%
inhibition at 10 µM (CDK2/CycA2): 10.3%
inhibition at 10 µM (EGFR(T790M)): -2%
inhibition at 10 µM (p70S6K): 15.9%
inhibition at 10 µM (EGFR(α746-750)): -5.1%
inhibition at 10 µM (CDK4/CycD3; CDK4/CycD3): 63.4%
inhibitory activity against CDK4 (CDK4/CycD3; in words, 10 μM): Potent inhibitory activity
inhibition at 10 µM (JNK3): -5.8%
inhibition at 10 µM (NDR1): 2.6%
inhibition at 10 µM (COK6/CycD3; COK6/CycD3): 72.7%
inhibitory activity against CDK6 (COK6/CycD3; in words, 10 μM): Potent inhibitory activity
inhibition at 10 µM (PKACα): 2.3%
inhibition at 10 µM (IGF1R): 8.7%
inhibition at 10 µM (PYK2): 21.6%
inhibition at 10 µM (MSK1): 5%
